≈ marks a conversion by molar mass, not a printed value. Counter-ions that a name gives are not always drawn.
Experiment: Solubility of ziprasidone from conjugates in phosphate buffered saline (HPLC)
Type: physicochemical
Settings: PBS, continuous agitation; for Solubility of ziprasidone, Sample Conc., 20 min: time point 20 min; for Solubility of ziprasidone, Sample Conc., 7 days: time point 7 days
Protocol: For the solubility determination, all conjugate samples were placed in Eppendorf tubes with 1-ml aliquot of phosphate buffered saline (PBS), pH adjusted to 7.4. At selected time points (20 minutes, 1 hour, 6 hours, 24 hours, and 7 days), 200 µl of PBS exposed to each sample was withdrawn and replaced with fresh medium. The samples were continuously agitated for the duration of the study. To prepare HPLC samples, the 200-μl samples were filtered through 0.22-μm syringe, filter membrane, diluted as needed, and injected at appropriately adjusted volume to determine ziprasidone concentration in solution.

| Compound | Solubility of ziprasidone, Sample Conc., 20 min (pH 7.4) [µg/mL] | Solubility of ziprasidone, Sample Conc., 6 hours (pH 7.4, time point 6 hours) [µg/mL] | Solubility of ziprasidone, Sample Conc., 7 days (pH 7.4) [µg/mL] | solubility at 24 h (phosphate buffered saline, pH 7.4, aqueous buffer, thermodynamic from solid, time point 24 hours, read-out: Solubility of ziprasidone, Sample Conc., 24 hours) [µg/mL] |
| --- | --- | --- | --- | --- |
| O=C1Cc2cc(CCN3CCN(c4nsc5ccccc45)CC3)c(Cl)cc2N1 [Ziprasidone Free Base, 5-[2-[4-(1,2-benzisothiazol-3-yl)-1-piperazinyl]ethyl]-6-chloro-1,3-dihydro-2H-indol-2-one] | 0.01 | 0.22 | 0.01 | 2 (≈ 4.84 µM) |
| O=C1Cc2cc(CCN3CCN(c4nsc5ccccc45)CC3)c(Cl)cc2N1 [Ziprasidone Mesylate] | 1.46 | – | 1.31 | – |
